Test results as given in US20240252456A1, “ORAL COMPOSITION, SKIN COSMETIC AND HAIR COSMETIC” (MARUZEN PHARMACEUTICALS CO., LTD., priority 2021, published 2024).

Columns and labels:
elastase type III = biological target: T1, elastase type III (Sus scrofa, UniProt P00772); test: Elastase activity inhibitory action test; type: biochemical; details: read-out: Elastase activity inhibition rate; for inhibition at 1000 µM: 1000 μmol/L
T1 construct: purchased SIGMA-Aldrich type III
Method: In a 96-well microplate, 50 μL of each of test samples (Samples 1 to 3, see Table 8 below for final concentrations) prepared with 0.2 mol/L Tris-HCl buffer solution (pH 8.0) and 50 μL of 20 μg/mL elastase type III (available from SIGMA-Aldrich) solution was mixed. After that, 100 μL of 0.4514 mg/mL N-succinyl-Ala-Ala-Ala-p-nitroanilide (available from SIGMA-Aldrich) prepared with the above buffer solution was added, and the mixture was reacted at 25° C. for 15 minutes. After the reaction was completed, the absorbance at a wavelength of 415 nm was measured. In addition, a blank test without enzyme addition was performed in the same manner and correction was made. From the obtained results, the elastase activity inhibition rate (%) was calculated using the following equation.
Terms in the equation represent the following respective ones. • A: Absorbance at wavelength 415 nm without sample addition and with enzyme addition • B: Absorbance at wavelength 415 nm without sample addition and without enzyme addition • C: Absorbance at wavelength 415 nm with test sample addition and with enzyme addition • D: Absorbance at wavelength 415 nm with test sample addition and without enzyme addition

FLG mRNA = test: Filaggrin (FLG) mRNA expression promotive action test; type: cell-based, human; details: NHEK, 24 hours, corrected with GAPDH
Method: Normal human neonatal epidermal keratinocytes (NHEK) were precultured using normal human epidermal keratinocyte growth medium (KGM), and the cells were collected by a trypsin treatment. The collected cells were diluted with KGM to a cell density of 15×10^4 cells/mL, then seeded with 2 mL portions in a 6-well plate (30×10^4 cells/well), and cultured overnight under conditions of 37° C. and 5% CO2. After culturing, the medium was replaced with normal human epidermal keratinocyte basal medium (KBM, the above KGM without addition of growth additives (hEGF, BPE, insulin, antibacterial agents, hydrocortisone)), and culturing was further performed for 24 hours.
After culturing for 24 hours, the medium was removed, and 2 mL of each of test samples (Samples 1 to 3, see Table 18 below for final concentrations) dissolved in KBM was added to each well, and culturing was performed under conditions of 37° C. and 5% CO2 for 24 hours. As a control, culturing was performed in the same manner using KBM to which no sample was added. After culturing, the medium was removed, total RNA was extracted using ISOGEN II (available from NIPPON GENE CO., LTD.), each RNA amount was measured using a spectrophotometer, and the total RNA was prepared so as to be 150 ng/μL.
For FLG and GAPDH as an internal standard, the expression levels of mRNA were measured using the above total RNA as a template. Detection was performed through a two-step real-time RT-PCR reaction using a real-time PCR device, Thermal Cycler Dice Real Time System III (available from Takara Bio Inc.), with PrimeScript™ RT Master Mix (Perfect Real Time) (available from Takara Bio Inc.) and TB Green® Fast qPCR Mix (available from Takara Bio Inc.). Primers available from Takara Bio Inc. were used. The expression level of FLG mRNA was obtained as a value corrected with a value of GAPDH based on total RNA preparations prepared from cells cultured “with test sample addition” and “without sample addition.” From the obtained values, the FLG mRNA expression promotion rate (%) was calculated using the following equation.
Terms in the equation represent the following respective ones. • A: Corrected value with test sample addition • B: Corrected value without sample addition

B16 melanoma cells = test: Melanin production suppressive action test on B16 melanoma cells; type: cell-based; details: 4 days, corrected by cell survival rate
Method: B16 melanoma cells were cultured using Dulbecco's modified Eagle's medium (DMEM) containing 10% FBS, and then the cells were collected by a trypsin treatment. The collected cells were diluted with DMEM containing 10% FBS and 1 mmol/L theophylline to a cell density of 24.0×10^4 cells/mL, then seeded with 300 μL per well in a 48-well plate, and cultured for 6 hours.
After the culturing was completed, 300 μL of each of test samples (Samples 1 to 3, see Table 5 below for final concentrations) dissolved in DMEM containing 10% FBS and 1 mmol/L theophylline was added to each well, and culturing was performed for 4 days. As a control, culturing was performed in the same manner using DMEM containing 10% FBS and 1 mmol/L theophylline to which no sample was added. After the culturing was completed, the medium was removed, 200 μL of 2 mol/L NaOH solution was added, the cells were disrupted using an ultrasonic disrupter, and the absorbance at a wavelength of 475 nm was measured. From the measured absorbance value, the amount of melanin was calculated based on a calibration curve created using synthetic melanin (available from SIGMA).
In addition, in order to measure the cell survival rate, after culturing in the same manner as above, the medium was removed, the cells were washed with 400 μL of PBS(−) buffer solution, 200 μL of Neutral Red dissolved at a final concentration of 0.05 mg/mL in DMEM containing 10% FBS was added to each well, and culturing was performed for 2.5 hours. After culturing, the neutral red solution was removed, and 200 μL of ethanol/acetic acid solution (ethanol:acetic acid:water=50:1:49) was added to each well to extract the dye. After extraction, the absorbance at a wavelength of 540 nm was measured. From the obtained results, the melanin production suppression rate (%) corrected by the cell survival rate was calculated using the following equation.
Terms in the equation represent the following respective ones. • A: Melanin amount without sample addition • B: Melanin amount with test sample addition • C: Absorbance at wavelength 540 nm without sample addition • D: Absorbance at wavelength 540 nm with test sample addition

T1 sequence (P00772 27-266): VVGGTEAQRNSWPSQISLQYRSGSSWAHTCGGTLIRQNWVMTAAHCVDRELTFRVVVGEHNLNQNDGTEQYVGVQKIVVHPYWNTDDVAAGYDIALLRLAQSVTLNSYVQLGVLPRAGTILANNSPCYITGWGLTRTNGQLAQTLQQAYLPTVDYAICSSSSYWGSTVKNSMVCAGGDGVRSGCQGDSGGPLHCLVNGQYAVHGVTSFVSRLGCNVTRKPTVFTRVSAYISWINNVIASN

| SMILES | inhibition at 250 µM (elastase type III; 250 μmol/L) | inhibition at 500 µM (elastase type III; 500 μmol/L) | inhibition at 1000 µM (elastase type III) | FLG mRNA expression promotion rate (FLG mRNA; 25 μmol/L) | FLG mRNA expression promotion rate (FLG mRNA; 100 μmol/L) | Melanin production suppression rate (B16 melanoma cells; 250 μmol/L) | Melanin production suppression rate (B16 melanoma cells; 62.5 μmol/L) | Melanin production suppression rate (B16 melanoma cells; 1000 μmol/L) |
| --- | --- | --- | --- | --- | --- | --- | --- | --- |
| O=C(O)CCc1ccc(O)c(O)c1 [Sample 1, 3,4-Dihydroxyhydrocinnamic acid] | 3.2% | 6.7% | 8.1% | 197.2% | 342.0% | 63.8% | – | – |
| O=C(O)CCc1ccc(O)cc1 [Sample 2, 3-(4-Hydroxyphenyl)propionic acid] | – | – | 4.2% | 168.2% | 129.8% | 40.2% | 8.5% | 69.5% |
| O=C(O)CCc1ccccc1 [Sample 3, 3-phenylpropionic acid] | – | – | 5% | 196.6% | – | 46.2% | – | 57.0% |
